Like-named read-outs stand apart in the source and are kept apart here.
Assays:
HepG2 tumor cell strain = test: HepG2 tumor cell growth inhibition, MTT method; settings: for IC50: Homo sapiens, HepG2, 48 h, read-out: half growth inhibition concentration (IC50)
[1] = Lipid-water partition coefficient test (n-octanol / biological brine, UV)
Experimental: I mg of each of 4-(2,3,5,6-tetramethylpyrazin-1-yl)-4′-demethylepipodophyllotoxin, 4′-demethylepipodophyllotoxin and podophyllotoxin was respectively dissolved into 3 centrifuge tubes of 10 mL each containing 2 mL n-octanol and 2 mL biological brine, the tubes were capped tight, shook thoroughly for 10 min, and subsequently let stand for 20 min. 0.2 mL of the organic- and water phase were respectively pipetted into clean test tubes. Absorbance (A) values of the organic- and water phase were measured using UV method, respectively, using A to calculate the weights of the drugs dissolved in the organic- and water layer, Walcohol and Wwater, respectively. The operations were repeated 3 times, averages were calculated, lipid-water partition coefficients were calculated using Eq. 1:
[formula] where Walcohol and Wwater denote the measured weights of drugs in n-octanol- and water phase, respectively; Valcohol and Vwater denote volumes of n-octanol- and water phase, respectively. 3. Results

[2] = system: human gastric cancer cell strain BGC-823; test: BGC-823 tumor cell growth inhibition, MTT method; format: cell-based; settings: read-out: half growth inhibition concentration (IC50)
[3] = system: human pulmonary cancer cell strain A549; test: A549 tumor cell growth inhibition, MTT method; settings: read-out: half growth inhibition concentration (IC50)
[4] = HK-2 normal cell growth inhibition (cell toxicity), MTT method; format: cell-based, human; settings: human, HK-2 cells (proximal tubule); HK-2 normal cells, MTT, 48 h; read-out: half growth inhibition concentration (IC50), cell toxicity
[5] = system: human proximal tubule cell strain HK-2; test: as above; format: cell-based; settings: HK-2 normal cells, from IC50 values
[6] = Homo sapiens, BGC-823 cells, MTT, 48 h

Structure (SMILES) | IC50 (HepG2 tumor cell strain) [nM] | logP [1] | IC50 [2, 6] [nM] | IC50 ([3]; Homo sapiens, A549, 48 h) [nM] | IC50 at 48 h [4] [nM] | other results
COc1cc([C@@H]2c3cc4c(cc3[C@@H]([n+]3c(C)c(C)nc(C)c3C)[C@H]3COC(=O)[C@H]23)OCO4)cc(OC)c1O [4-(2,3,5,6-tetramethylpyrazin-1-yl)-4′-demethylepipodophyllotoxin] | 290 | 0.66 | 60 | 230 | 240 | inhibition activity raised in comparison with etoposide (HepG2 tumor cell strain; HepG2 cells, from IC50 values): 2.7 times; lipid water partition coefficient increased than 4′-demethylepipodophyllotoxin ([1]; from logP values): 16%; lipid water partition coefficient increased than podophyllotoxin ([1]; from logP values): 94%; cell toxicity decreased in comparison with podophyllotoxin [5]: ~66 times
COc1cc([C@@H]2c3cc4c(cc3[C@@H](O)[C@H]3COC(=O)[C@H]23)OCO4)cc(OC)c1O [4′-demethylepipodophyllotoxin] | – | – | – | – | – | IC50 ([2]; BGC-823 cells, MTT, 48 h): 398000 nM; IC50 ([3]; A549 cells, MTT, 48 h): 450 nM
COc1cc([C@@H]2c3cc4c(cc3[C@@H](O[C@@H]3O[C@@H]5CO[C@@H](C)O[C@H]5[C@H](O)[C@H]3O)[C@H]3COC(=O)[C@H]23)OCO4)cc(OC)c1O [etoposide] | 1060 | – | 14000 | 165000 | – | –
COc1cc([C@@H]2c3cc4c(cc3[C@H](O)[C@H]3COC(=O)[C@H]23)OCO4)cc(OC)c1OC [podophyllotoxin] | – | 0.34 | – | – | 3.5 | IC50 ([2]; Homo sapiens, BGC-823, 48 h): 529000 nM
Cc1nc(C)c(C)nc1C [tetramethylpyrazine] | – | > 5 | – | – | – | lipid-water partition coefficient (logP) [1]: >5
